In patent publication US9737493B2, “Compositions and methods for modulating DNMT1 inhibitor activity” (University of Louisville Research Foundation, Inc., priority 2012, dated 2017):

How the values were obtained:
[1] = test system: DU145 cells; assay: MTT cell proliferation assay; format: cell-based; conditions: Homo sapiens, DU-145; DU145, 72 h
Method: Cell Proliferation Assays. The antiproliferative activity of XB05 was tested using a previously published 3-(4,5-dimethylthiazol-2-yl)-2,5-diphenyltetrazolium bromide (MTT) assay protocol (Girvan et al., “AGRO100 inhibits activation of nuclear factor-kappaB (NF-kappaB) by forming a complex with NF-kappaB essential modulator (NEMO) and nucleolin” Molecular Cancer Therapeutics (2006) Vol. 5, No. 7, pp. 1790-1799). Briefly, cells were seeded in quadruplicate wells in 96-well plates and allowed to adhere overnight. […] Plates were incubated with XB05 for 72 h, during which the cell culture medium was not changed. Cell viability was determined and the background corresponding to medium alone (no cells) was subtracted. Data were analyzed as described in the Brief Description of the Drawings.
XB05 has Cancer-Selective Antiproliferative Activity. XB05 was tested to determine its antiproliferative activity in a variety of human cell lines that are derived from malignant tissues or from non-malignant (immortalized but not transformed) cells and listed in FIG. 1B. As described in Materials and Methods, cells were treated with varying concentrations of XB05 for 72 h and evaluated using the MTT cell proliferation assay.

[2] = test system: U937 cells; assay: Carboxy-H2DCFDA ROS detection, flow cytometry; format: cell-based, human; conditions: U937, 1 μM, 8 h
Method: (§1) FIG. 7: XB05 Induces ROS. (A) Cells were treated with either vehicle, tert-butyl hydrogen peroxide (TBHP, 100 μM, 3 h) or XB05 (8 h with 1 μM for U937 and Hs27, or 2 μM for A549), then stained with carboxy-H2DCFDA and PI for analysis by flow cytometry. Histograms illustrate representative data and bar graphs show the increase (over vehicle control) in the percentage of PI-negative (viable) cells with positive DCF fluorescence in each sample. Bars represent the mean+/−SEM from three independent experiments. […] (B) Cells were treated with XB05 as described in part A. As a positive control for superoxide production, cells were treated with Antimycin A (10 μM) for 1 h. Cells were harvested and subjected to MitoSOX™ Red staining for analysis by flow cytometry as described in Methods. Histograms illustrate representative data and bar graphs show the mean+/−SEM for three independent experiments.
(§2) Flow Cytometric Assays. Analyses were performed using a FACScalibur flow cytometer (BD Biosciences, Mountain View, Calif.) and FlowJo software (Tree Star, Inc., Ashland, Oreg.). Cells were treated as indicated in the figures and in the Brief Description of the Drawings. Cells were harvested by using TrypLE Cell Dissociation Reagent (Life Technologies). For cell death analyses, cells (adherent and detached cells) were stained with annexin-V-FITC and propidium iodide (PI) using the Apoptosis Detection Kit (BD Biosciences, San Jose, Calif.), according to the manufacturer's instructions. For cell-cycle distribution, cells were fixed, and stained with PI using the Cycle Test Plus kit (Becton Dickinson, Franklin Lakes, N.J.). For detection of γ-H2AX, cells were washed with PBS and fixed in 4% paraformaldehyde in PBS for 10 min at 37° C. Cells were then permeabilized in 90% methanol for 30 min on ice, blocked in 2% BSA (w/v in PBS) for 1 h, and incubated with γ-H2AX antibody or rabbit IgG isotype control (Santa Cruz, sc-2027) (0.3 μg/mL in 1% BSA) for 1 h. […] Cells were then washed twice with PBS, re-suspended at a density of 1×10^6 cells/mL in PBS and analyzed by flow cytometry.

[3] = test system: A549 cells; assay: Carboxy-H2DCFDA ROS detection, flow cytometry; format: cell-based, human; conditions: A549, 2 μM, 8 h
Method: as §1, §2

[4] = test system: Hs27 cells; assay: Carboxy-H2DCFDA ROS detection, flow cytometry; format: cell-based, human; conditions: Hs27, 1 μM, 8 h
Method: as §1, §2

[5] = test system: U937 cells; assay: DNA content (PI) cell cycle analysis; format: cell-based, human; conditions: U937, 24 h
Method: (§3) FIG. 6: DNA Content Analysis for Malignant Cells treated with XB05. (A) U937 and A549 cells were treated with XB05 at the concentrations indicated for 24, 48 and 72 h. At each time point, the cells were harvested and subjected to propidium iodide (PI) staining for DNA content analysis as described in Methods. (B) Tables showing percentage of cycling cells (non-SubG1) in various phases of the cell cycle after treatment with vehicle or XB05 as indicated in FIG. 6A.
as §2, with “N.J.).” for “N.J.). For detection of γ-H2AX, cells were washed with PBS and fixed in 4% paraformaldehyde in PBS for 10 min at 37° C. Cells were then permeabilized in 90% methanol for 30 min on ice, blocked in 2% BSA (w/v in PBS) for 1 h, and incubated with γ-H2AX antibody or rabbit IgG isotype control (Santa Cruz, sc-2027) (0.3 μg/mL in 1% BSA) for 1 h.”

[6] = test system: A549 cells; assay: DNA content (PI) cell cycle analysis; format: cell-based, human
Method: as §3
as §2, with “N.J.).” for “N.J.). For detection of γ-H2AX, cells were washed with PBS and fixed in 4% paraformaldehyde in PBS for 10 min at 37° C. Cells were then permeabilized in 90% methanol for 30 min on ice, blocked in 2% BSA (w/v in PBS) for 1 h, and incubated with γ-H2AX antibody or rabbit IgG isotype control (Santa Cruz, sc-2027) (0.3 μg/mL in 1% BSA) for 1 h.”

[7] = test system: U937 cells; assay: MitoSOX Red mitochondrial superoxide, flow cytometry; format: cell-based, human; conditions: U937, 1 μM, 8 h
Method: as §1, §2

[8] = test system: A549 cells; assay: as above; format: cell-based, human; conditions: A549, 2 μM, 8 h
Method: as §1, §2

[9] = test system: Hs27 cells; assay: as above; format: cell-based, human; conditions: Hs27, 1 μM, 8 h
Method: as §1, §2

[10] = test system: U937 cells; assay: Flow cytometric detection of γ-H2AX; format: cell-based, human; conditions: U937, 1 μM, 24 h
Method: (§4) FIG. 11: XB05 Induces DNA Damage in Malignant Cells. (A) Alkaline comet assays for detection of DNA damage for cells treated as indicated for 72 h. TBHP was a positive control for oxidative DNA damage. Decreased DNA fluorescence in nucleoid comet heads (arrows) and increased smearing of DNA into comet tails (asterisks) is indicated. Scale bar, 400 μm. Data shown are representative of at least two individual experiments for each cell line. (B) Western blot analysis for γ-H2AX and GAPDH (loading control) in whole cell extracts from cells treated with vehicle, UV irradiation (800 μJ, positive control for DSBs), or XB05 (1 μM for U937, 2 μM for A549) after 24 h. Images shown are representative of three individual experiments in each cell line. (C) Flow cytometric detection of γ-H2AX in cells treated as described in part B. Bar graph represents mean+/−SEM for 3 individual experiments in each cell line. Statistical comparison indicated significant differences between vehicle and XB05-treated groups in both cell lines (*p≦0.05).
(§5) Flow Cytometric Assays. Analyses were performed using a FACScalibur flow cytometer (BD Biosciences, Mountain View, Calif.) and FlowJo software (Tree Star, Inc., Ashland, Oreg.). […] Cells were then washed twice with PBS, re-suspended at a density of 1×10^6 cells/mL in PBS and analyzed by flow cytometry.

[11] = test system: A549 cells; assay: Flow cytometric detection of γ-H2AX; format: cell-based, human; conditions: A549, 2 μM, 24 h
Method: as §4, §5

[12] = target: recombinant human DNMT1 (Homo sapiens, UniProt P26358); assay: DNMT1 activity assay; format: biochemical; conditions: recombinant human DNMT1 or nuclear extracts from treated cells
Excerpt: The assays use recombinant Human DNMT1 (FIG. 19A) or nuclear extracts prepared from cells treated with XB05 (BX11) or 5-Aza (5-azacytidine) (FIG. 19B).

recombinant human DNMT1, sequence (P26358 whole entry): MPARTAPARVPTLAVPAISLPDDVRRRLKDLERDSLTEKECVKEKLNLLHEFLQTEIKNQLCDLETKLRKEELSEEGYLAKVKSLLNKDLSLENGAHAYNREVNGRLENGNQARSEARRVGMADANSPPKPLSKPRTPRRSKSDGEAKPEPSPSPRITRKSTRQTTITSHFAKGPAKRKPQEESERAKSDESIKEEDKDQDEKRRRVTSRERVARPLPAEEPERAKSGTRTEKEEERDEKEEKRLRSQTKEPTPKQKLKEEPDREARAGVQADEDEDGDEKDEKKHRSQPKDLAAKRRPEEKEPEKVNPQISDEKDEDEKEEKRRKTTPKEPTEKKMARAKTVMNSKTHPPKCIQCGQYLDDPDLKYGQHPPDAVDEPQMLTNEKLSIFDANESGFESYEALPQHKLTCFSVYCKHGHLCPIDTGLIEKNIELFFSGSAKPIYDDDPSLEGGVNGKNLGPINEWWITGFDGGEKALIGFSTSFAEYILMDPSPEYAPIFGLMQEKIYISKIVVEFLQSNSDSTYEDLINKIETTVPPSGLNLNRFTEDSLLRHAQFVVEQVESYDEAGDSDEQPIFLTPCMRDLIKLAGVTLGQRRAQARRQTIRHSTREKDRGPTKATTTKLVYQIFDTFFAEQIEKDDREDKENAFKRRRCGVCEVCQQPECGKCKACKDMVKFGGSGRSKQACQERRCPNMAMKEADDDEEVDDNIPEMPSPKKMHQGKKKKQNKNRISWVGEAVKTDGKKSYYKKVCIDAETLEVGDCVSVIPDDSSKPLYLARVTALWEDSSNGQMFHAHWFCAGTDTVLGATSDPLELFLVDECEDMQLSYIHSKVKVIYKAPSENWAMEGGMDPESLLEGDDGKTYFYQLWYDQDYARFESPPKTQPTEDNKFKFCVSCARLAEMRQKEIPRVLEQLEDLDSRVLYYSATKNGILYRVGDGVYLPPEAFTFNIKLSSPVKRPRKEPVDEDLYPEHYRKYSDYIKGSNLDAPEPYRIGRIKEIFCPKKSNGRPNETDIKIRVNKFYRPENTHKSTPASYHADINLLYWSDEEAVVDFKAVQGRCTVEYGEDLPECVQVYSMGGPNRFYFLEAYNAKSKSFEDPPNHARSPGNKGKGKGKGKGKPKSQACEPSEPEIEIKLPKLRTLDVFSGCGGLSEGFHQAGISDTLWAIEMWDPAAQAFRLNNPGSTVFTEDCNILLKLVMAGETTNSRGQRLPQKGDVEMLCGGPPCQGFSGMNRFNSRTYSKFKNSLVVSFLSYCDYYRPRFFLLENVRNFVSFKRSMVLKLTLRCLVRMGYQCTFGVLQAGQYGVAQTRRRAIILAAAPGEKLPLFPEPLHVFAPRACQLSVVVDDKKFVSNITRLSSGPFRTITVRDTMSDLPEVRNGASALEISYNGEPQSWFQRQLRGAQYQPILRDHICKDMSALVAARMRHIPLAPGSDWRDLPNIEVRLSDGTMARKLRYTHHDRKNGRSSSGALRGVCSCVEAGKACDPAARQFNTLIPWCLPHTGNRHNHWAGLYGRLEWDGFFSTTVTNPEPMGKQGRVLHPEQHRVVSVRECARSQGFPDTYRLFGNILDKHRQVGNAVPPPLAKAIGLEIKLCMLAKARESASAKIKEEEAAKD

CCCCCC(O)C#CC(F)(F)Br (stereo not drawn) [XB05]
GI50 [1]: < 500 nM | levels of ROS (DCF-positive viable cells) [2]: elevated | levels of ROS (DCF-positive viable cells) [3]: elevated | levels of ROS (DCF-positive viable cells) [4]: elevated | proportion of cells in G2/M phase [5]: pronounced increase in the proportion of cells in G2/M phase | proportion of cells in G2/M phase [6]: very modest increase in the G2/M fraction | MitoSOX Red fluorescence vs vehicle [7]: increase in MitoSOX™ Red fluorescence | MitoSOX Red fluorescence vs vehicle [8]: increase in MitoSOX™ Red fluorescence | MitoSOX Red fluorescence vs vehicle [9]: not in Hs27 non-malignant fibroblasts | increase in γ-H2AX staining compared to vehicle-treated controls [10]: 4.5 fold | increase in γ-H2AX staining compared to vehicle-treated controls [11]: 2.9 fold | effect on DNMT1 activity [12]: inhibitory effects
